Results from patent US10344037B2, “Use of the FL-one hundred eighteen core chemical structure platform to generate FL-one hundred eighteen derivatives for treatment of human disease” (priority 2014, dated 2019).

Tests used:
[1] = tested on: DU145 prostate cancer cells; experiment: Cell growth inhibition, cell counting after 72 h; assay type: cell-based, human
Source text: Each dot is the mean±SD derived from 3 independent assays.
Irinotecan and topotecan are the only two analogs derived from direct modification of camptothecin (CPT) that are approved by the FDA for cancer treatment in clinical practice. […] In this regard, we obtain one DU145 parental prostate cancer cell line and two DU145-derived sub-lines with Top1 mutations (DU145-RC0.1, DU145-RC1).

[2] = Pharmacokinetics after IV injection in tumor-bearing SCID mice; assay type: in vivo
Protocol: Then, blood and tumor tissues were collected at 10 min, 1 h, 4 h, 12 h, 24, and 48 h. Three SCID mice at each time point were used. Standard deviation (SD) was analyzed using Excel software.
A 800 μl aliquot of ice cold acidified methanol is added to 200 μl plasma and vortexed for 15 sec. […] A 800 μl aliquot of ice cold acidified methanol is added to 200 μl homogenized tissue and then vortexed for 1 min. The samples are then centrifuged at 13,000 rpm for 5 min. and the supernatant is transferred to a clean 13×100 mm glass tube. Samples are dried under vacuum and stored at −20° C. until analysis. Dried samples were then reconstituted in 200 μl of mobile phase (80% 3% TEA and 20% acetonitrile pH 5.5) and 15 μl is injected. Analysis is carried out using an Acquity UPLC system with Fluorescence detection interfaced with Empower software. Separation is carried out on a Acquity BEH Shield RP18 1.7 μm, 2.1 mm×100 mm column (Waters). […] CPT-11 is used as the internal standard (IS); a 10 μl aliquot of a 1.3 μg/ml solution is added to each 200 μl sample. The fluorescence detector is set at the following Excitation (Ex) and Emissions (Em) wavelengths: Ex 370 nm Em 510 nm. […] To ensure quality assurance, quality control samples are prepared in plasma at 25 and 250 ng/ml aliquoted and stored at −20° C. The QC's are injected in duplicate at the beginning and end of the assay. […] Validation consists of running twelve standard curves over the course of 5 days. QC samples are analyzed with each curve.

survivin promoter = experiment: Survivin promoter-luciferase activity assay; assay type: cell-based, human
Protocol: Cancer cells are seeded in 48-well plates at about 50% confluent overnight in complete cell culture medium. Cells are either stably transfected with the pLuc-4080 survivin promoter-luciferase construct or transiently transfected with relevant luciferase reporter vectors. For transient transfection, 245 ng of targeting luciferase reporter construct plus 5 ng of internal control vector, pRK-tk in 30 μl serum-free DMEM, is mixed in a 1.5 ml tube containing 30 μl serum-free DMEM containing 0.4 μl Lipofectamine™ 2000. After incubation at room temperature for 20-25 minutes, the DNA/Lipofectamine complex is added to each well of 48-well plates, which already contain 300 μl corresponding complete growth medium in each well. […] Cells are further incubated for an additional 24-48 hours in a normoxia and/or hypoxia condition, followed by processing luciferase assays. For luciferase assay, a Dual-Luciferase Reporter Assay System (Promega) is used. Cells in 48-well plates are washed with PBS and lysed with 80 μl 1× passive lysis buffer on a shaker for up to 1 hour at 4° C. Twenty μl cell lysate per well is used to measure the Firefly and Renilla luciferase activity in triplicates in a Luminometer by subsequently adding 20 μl luciferase assay reagent and 20 μl Stop-Glo reagent. […]

HIF-1α = experiment: Western blot for HIF-1α expression under hypoxia in FaDu cells; assay type: cell-based, human; settings: 36 h
[3] = tested on: ABCC4 or ABCG2 in HCT-8 colon cancer cells; experiment: MTT assay of HCT-8 cells transfected with ABCC4 or ABCG2; assay type: cell-based, human; settings: 72 hours
Protocol: HCT-8 colon cancer cells are transfected with empty vector (pcDNA3.1), ABCC4 or ABCG2 expression vectors as shown. […] Cell growth/viability is then determined by MTT assay.

in vivo = settings: weekly×4
Protocol: Individual tumor curves derived from individual mice are shown. A. Mice with FaDu head-&-neck tumor xenografts were first treated with irinotecan at its maximum tolerated dose (MTD, 100 mg/kg, IP) weekly for 4-5 times (black arrow). […] B. Mice with FaDu tumor xenografts were first treated with topotecan at its MTD (4 mg/kg, IP) via daily×5 schedules for 4 cycles (each black arrow is one cycle). […] C. Mice with SW620 CRC xenografts were first treated with irinotecan at its MTD (IP, weekly×4, black arrow). […] D. Mice with SW620 xenograft tumors were first treated with topotecan at its MTD.

[4] = Lactone ring stability in formulated solution by mass spectrometry; assay type: physicochemical; settings: formulated solution on shelf for 30 days at room temperature
Protocol: Mass spectrometry (MS) parameters are used as follows. Bruker Esquire, ion trap; Infusion Flow Rate, 5 μl/min; Ion Polarity, Positive; Ion Source Type, ESI; Dry Temp, 300 deg C.; Nebulizer, 8.00 psi; Dry Gas, 7.00 Umin; HV Capillary, 4000 V; HV End Plate, −500 V; Scan Begin, 100.00 m/z; Average, 30; Max Acc Time, 400 us; and ICC Target, 50000. MS scan is in both negative ion mode and positive ion mode.

[5] = tested on: human EU-4 acute lymphocytic leukemia; experiment: EU-4 acute lymphocytic leukemia (ALL) mouse model; assay type: in vivo, SCID mice; settings: IV, q2×5
Source text: The EU-4 cells are intraperitoneally injected (5×10^6 per SCID mouse). […] Body weight changes, belly enlargement and overall mouse survival status are documented every 2-3 days throughout the experiment period.
Of note, “died with ascites” means mice at a moribund/dying state and then being euthanized. This is because moribund mice need to be euthanized based on the animal protocol rule.

[6] = tested on: human proteins (MARK3, DDI1, TPD52L2, CACNB1, PGPCR1, USP2, MC2R, FGF18, TP53I3, CNBP, WDR22, PVGCSE-M1, UBE2T, ULP7, RBMS2, BMX, CCNB1IP1); experiment: Protein microarray (ProtoArray) with FL118 as a probe; assay type: binding; settings: over 9,000 human proteins
Source text: These targets include, but not limited to, MAP/microtubule affinity-regulating kinase 3 (MARK3), DNA-damage inducible 1 (DDI1), tumor protein D52-like 2 (TPD52L2), calcium channel, voltage-dependent, beta 1 subunit (CACNB1), Probable G-protein coupled receptor 1 (PGPCR1), ubiquitin specific peptidase 2 (USP2), melanocortin 2 receptor (MC2R), Fibroblast growth factor 18 (FGF18), tumor protein p53 inducible protein 3 (TP53I3), CCHC-type zinc finger, nucleic acid binding protein (CNBP), WD repeat domain 22 (WDR22), Potassium voltage-gated channel subfamily E member 1 (PVGCSE-M1), ubiquitin-conjugating enzyme E2T (putative) (UBE2T), Ubiquitin-like protein 7 (ULP7), RNA binding motif, single stranded interacting protein 2 (RBMS2), Cytoplasmic tyrosine-protein kinase (BMX), and cyclin B1 interacting protein 1 (CCNB1IP1).

PARP cleavage = settings: p53 null versus p53 wild type HCT116
Protocol: Actin is used as internal controls for total protein loading.
After the lysates are cleared by centrifugation at 15,000 g for 20 minutes at 4° C., the total protein is determined using Bio-Rad protein assay solution. Up to 50 μg of total protein is denatured in 2×SDS sample loading buffer for 5 minutes at 95° C., separated on 10-15% SDS-PAGE gels, and electrotransferred to the Pure Nitrocellulose Membrane (Bio-Rad, Hercules, Calif.) using semi-dry electrophoretic transfer. After the nonspecific binding sites on the membranes are blocked with 5% skim milk in TBS-T (20 mM Tris-HCl pH 7.5, 0.137 M NaCl, and 0.01% Tween 20) for 3 hours at room temperature with constant shaking, the membranes are incubated in TBS-T containing the relevant primary antibody (1: 500-1000) and 5% BSA overnight at 4° C. After washing with TB S-T three times, the membrane is incubated in 5% skim milk in TBS-T buffer containing the appropriate secondary anti-IgG antibody (1:5000) at room temperature for 1 h with constant shaking. The protein of interest is detected using Western Lightning®-ECL (Perkin Elmer, Waltham, Mass.) and visualized by exposure for various times (5-60 seconds). […]

With `CC[C@@]1(O)C(=O)OCc2c1cc1n(c2=O)Cc2cc3cc4c(cc3nc2-1)OCO4` [FL118] the IC50 ([1]; DU-145) was 4.56 nM, the “more effective than CPT, SN-38 and topotecan to inhibit cancer cell growth” value ([1]; parental Du145 cell line) was 10-40 fold and the T1/2 ([2]; FaDu tumor, iv 1.5 mg/kg) was 411.1 min. For the same molecule, the Tmax ([2]; FaDu tumor, iv 1.5 mg/kg) was 10 min, the Vz ([2]; FaDu tumor, iv 1.5 mg/kg) was 33052 g/kg and the T1/2 ([2]; SW620 tumor, iv 1.5 mg/kg) was 765 min. For the same molecule, the Tmax ([2]; SW620 tumor, iv 1.5 mg/kg) was 10 min, the Vz ([2]; SW620 tumor, iv 1.5 mg/kg) was 30742 g/kg and the “time FL118 is maintained in tumor” value ([2]; intravenous injection) was “over 48 hours”. The “time to clearance from blood” value ([2]; intravenous injection) was at most 12 h, the Cl ([2]; mouse plasma, iv 1.5 mg/kg) was 238.12 mL/min/kg and the Cmax ([2]; mouse plasma, iv 1.5 mg/kg) was 43 ng/mL. The T1/2 ([2]; mouse plasma, iv 1.5 mg/kg) was 107.3 min, the Tmax ([2]; mouse plasma, iv 1.5 mg/kg) was 10 min and the Vz ([2]; mouse plasma, iv 1.5 mg/kg) was 36.849 L/kg. For the same molecule, the “concentration that can effectively inhibit survivin promoter activity” value (survivin promoter) was 1 to 10 nM, the “hypoxia-induced survivin promoter activity” value (survivin promoter; HCT116 cells with full-length survivin promoter-luciferase, 24 h, hypoxia) was “abrogated by FL118 treatment” and the “hypoxia-induced HIF-1α expression” value (HIF-1α) was “abrogated by FL118 treatment”. The “effect of forced expression of ABCC4 or ABCG2 on resistance” value [3] was “fails to increase FL118 resistance”, the MTD (in vivo; IV injection) was 5 mg/kg and the body weight loss (in vivo; oral administration) was “Minimal Body Weight Loss”. The MTD (in vivo; oral) was 10 mg/kg, the “lactone versus carboxylate form in solution” value [4] was “fully in lactone form” and the “ascites production and animal survival” value [5] was “effectively inhibits ascites production and extends animal survival”. The biochemical targets identified [6] was “Revealed Novel FL118 Biochemical Targets” and the PARP cleavage (PARP cleavage) was “more effective to induce PARP cleavage in p53 null HCT116 colon cancer cells than in p53 wild type HCT116 cells”.
